Values after ≈ are worked out from the molar mass of the structure shown.
Tests used:
[1] = Metal chelating activity (spectrophotometric), Cu2+; assay type: binding; details: chelation equilibrium constant, calculated for a pure phenylpropanoid
Text: (§1) The chelating activities of Syringa vulgaris extracts, verbascoside and isoverbascoside in relation to Fe^2+, Fe^3+, Cu^2+ and Ni^2+ metal ions has been determined by means of spectrophotometric measurements using a Shimadzu 1770 UV spectrophotometer. The activities of chelating agents depends on the association constant (equilibrium) of their reactions with the metals according to the following reaction:
(§2) [formula] wherein Keq is the equilibrium constant equal to the ratio of concentrations at equilibrium of a complex and product of equilibrium concentrations of metal ions and a chelator:
(§3) [formula] The method used for determining chelating activity is well documented in the literature (Korkina L G, Afarras'er IB. Antioxidant and chelating properties of flavonoids. Adv. Pharmacol., 1997, 38:151-63). The results are expressed as Keg (M^−1) calculated for a pure phenylpropanoid. This way the chelating activity against ferrous (Fe II), ferric (Fe III), copper (Cu II) and nickel ions has been calculated.

whole blood = assay: Whole blood luminol dependent chemiluminescence; assay type: cell-based; details: 0.5 h; fresh human blood, 30 minutes, 37° C.; read-out: Whole blood chemiluminescence (IC 50 mg/ml)
Description: (§4) Anti-inflammatory activity has been assessed by measuring luminol dependent chemiluminescence generated by free radicals released from whole blood and from white blood cells. The assay has been performed using the following protocol: 10 μl of fresh human blood is mixed with 0.980 ml of Hanks saline solution containing 5×10^−5 M luminol and the test sample (at various concentrations). The chemiluminescent response is recorded continuously for 30 minutes at a temperature of 37° C. The results are expressed as IC50 (mg/ml), i.e. as the minimum sample, concentration inhibiting chemiluminescence by 50% with respect to the control. To isolate white blood cells (WBC) from whole blood one proceeds in the following manner: 1 ml of fresh blood is layered onto a Hipaque gradient (p=1.119) and centrifuged at 250×g for 60 minutes at room temperature. Following centrifugation, the pellet containing the white blood cells is washed twice, using a large volume of cold Hanks saline solution. Finally, the washed WBCs are resuspended in 01 ml di HBSS containing foetal calf serum. 10^6 WBC are added to a chemiluminometer cuvette. 10 μl of PMA (final concentration equal to 10 nM) are added to induce the formation of free radicals. The chemiluminescent response is recorded continuously for 30 minutes at a temperature of 37° C. […]

tyrosinase [2] = assay: Tyrosinase inhibition, oxidation of L-tyrosine to L-DOPA; assay type: biochemical; details: 250 μg/ml
Text: (§5) The enzyme tyrosinase catalyses the reactions leading to melanin biosynthesis from tyrosine. […] Substances inhibiting tyrosinase activity produce clearing/bleaching effect on the skin, since they block melanin synthesis. The method used to determine the inhibition of tyrosinase activity in the oxidation reaction of L-tyrosine to L-DOPA is that described in Kim et al. […] Biol. Pharm. Bull. 28(2), 323-327, 2005). The method applied for determination of the inhibition of tyrosinase activity in the conversion of L-DOPA to DOPAquinone is that described in Masamoto et al. (Mushroom tyrosinase inhibitory activity of esculetin isolated from seeds of Euphorbia lathyris L. Biosci. Biotechnol. Biochem., 67(3), 631-634, 2003).

[3] = Metal chelating activity (spectrophotometric), Fe3+; assay type: binding; details: chelation equilibrium constant, calculated for a pure phenylpropanoid
Text: as §1, §2, §3

white blood cells = assay: PMA-stimulated white blood cell chemiluminescence; assay type: cell-based; details: Homo sapiens; 10^6 WBC, PMA 10 nM; read-out: White blood cell chemiluminescence (IC50 mg/ml)
Description: as §4

[4] = Metal chelating activity (spectrophotometric), Fe2+; assay type: binding; details: chelation equilibrium constant, calculated for a pure phenylpropanoid
Text: as §1, §2, §3

tyrosinase [5] = assay: Tyrosinase inhibition, conversion of L-DOPA to DOPAquinone; assay type: biochemical, Mushroom; details: 100 μg/ml
Text: as §5

[6] = test system: Malassezia furfur ST 8036; assay: Multiple dilution antimycotic assay, Malassezia furfur; assay type: cell-based; details: assayed at 0.625-5 mg/ml
Description: With the aim of identifying any potential antifungal activity in the Syringa vulgaris extracts, microbiological assays have been prepared, generally known as multiple dilution assays. Such assays have been performed using the following fungal strains: Trycophyton rubrum ATCC 28188 and Malassezia furfur ST 8036. Syringa vulgaris Extracts 1 and 2, verbascoside and isoverbascoside have been assayed at concentrations of […], 1.25 mg/ml, 2.5 mg/ml and 5 mg/ml. The fungal strains used for testing have been inoculated into culture-broth (in Tryptone soy broth medium, for Malassezia furfur the culture medium has been supplemented with 2 ml/100 ml of olive oil) containing Syringa vulgaris extracts 1 and 2, verbascoside and isoverbascoside at the concentrations described above. In parallel with these tests, culture broths containing the microbial strain alone have been prepared (controls). The culture-broths have, been incubated at 30° C. for a period of 28 days. Samples of the various culture-broths have been taken at 0, 7, 14, 21 and 28 days, with the aim of counting the number of CFU/ml in relation to the various fungal strains, by plating the cultures on solid medium. A certain number of serial dilutions have been prepared for each sample in order to determine the fungal load of each culture-broth. Each dilution has been assayed in triplicate on solid medium. […]

PC12 cells = assay: Protection against oxidative stress induced cell death in PC12 cells; assay type: cell-based, rat; details: 72 hours
Text: This assay has the aim of determining the protective capacity, of Syringa vulgaris extracts, in relation to oxidative stress induced cell death in rat pheochromocytoma cell cultures (PC12 cell line).
The assay has been performed as described in the literature (Echevery C. et al. Cytoprotection by neutral fraction of tannat red wine against oxidative stress-induced cell death. J. Agric. Food Chem., 2004, 52(24): 7395-9. Ochiai T. et al. Crocin prevents the death of rat pheo-chromycitoma (PC12) cells by its antioxidant effects stronger than those of alpha-tocopherol. Neurosci. Lett., 2004, 362(1):61-4).
The results obtained are summarised in table 11, and are expressed as the ratio between the numbers of viable cells after 72 hours in the samples with respect to control.

SMILES	Cu^2+ (Keq, M^−1) [1] [M⁻¹]	IC50 (whole blood) [mg/mL]	Test L-tyrosine-DOPA inhibitory activity (%) (tyrosinase [2])	Fe^3+ (Keq, M^−1) [3] [M⁻¹]	IC50 (white blood cells) [mg/mL]	Fe^2+ (Keq, M^−1) [4] [M⁻¹]	Test LDOPA-DOPAquinone inhibitory activity (%) (tyrosinase [5])	antimycotic activity towards Malassezia furfur (in words) [6]	Ratio of viable treated cells over control (PC12 cells; 100 μg/ml)	Ratio of viable treated cells over control (PC12 cells; 500 μg/ml)	Ratio of viable treated cells over control (PC12 cells; 1000 μg/ml)
C[C@@H]1O[C@@H](O[C@@H]2[C@@H](O)[C@H](OCCc3ccc(O)c(O)c3)O[C@H](CO)[C@H]2OC(=O)/C=C/c2ccc(O)c(O)c2)[C@H](O)[C@H](O)[C@H]1O [Verbascoside, b-(3,4-dihydroxyphenyl)-ethyl-O-α-L-ramnopyranosyl (1″-3′)-b-D-(4′-O-caffeoil)-glucopyranoside]	120000 ± 40000	1.29 (≈ 2070 µM)	19.6	120000 ± 50000	0.23 (≈ 368 µM)	450000 ± 110000	20.6	activity comparable to Extract 1			
CC1OC(OC2C(O)C(COC(=O)C=Cc3ccc(O)c(O)c3)OC(OCCc3ccc(O)c(O)c3)C2O)C(O)C(O)C1O [Isoverbascoside, b-(3,4-dihydroxyphenyl)-ethyl-O-α-L-ramnopyranosyl(1″-3′)-b-D-(6′-O-caffeoil)glucopyranoside]	130000 ± 60000	1.3 (≈ 2080 µM)	10.9	130000 ± 40000	0.25 (≈ 400 µM)	460000 ± 120000	10	activity comparable to Extract 1	4	10	10

Reference: US10456434B2, “Extracts obtained from cell line cultures from plants belonging to the Oleaceae family (e.g. Syringa vulgaris), their preparation and use” (CRODA ITALIANA S. P. A., priority 2005, dated 2019)
